# Article PMC9603373 (Microbiology Spectrum, 2022)
# Like-named read-outs stand apart in the source and are kept apart here. Marks after values point to notes of the source that are not given here.
# Assays:
# [1] = Single-dose pharmacokinetics in healthy rats; conditions: for auc / cmax: rounded mean of the PK study, repeated per rat; for AUC0–24: healthy male Wistar rats, UHPLC-ESI-MS/MS, mean (SD), n = 3, SD; for AUC0–24 / conc: plasma
# Protocol: The experiments were performed in triplicate. […] Plasma was collected via centrifugation, and the samples were stored at −80°C until analysis.
# All of the UHPLC-ESI-MS/MS analyses were performed using an Agilent 1290 UHPLC system coupled with an Agilent 6460 triple quadrupole mass spectrometer (Agilent Technologies, Santa Clara, CA, USA).
# [2] = human healthy volunteers, cited from earlier work; for cmax: mean
# Protocol: Therefore, 45 mg/kg s.c. and 90 mg/kg s.c might represent human doses of 8 mg/kg and 12 mg/kg, respectively ([34]). […] Since the efficacy was much more pronounced in the infrequently administered dosing regimens, Cmax/MIC is likely the most predictive ([35], [36]). The selected rat dose from which to simulate the human dose is slightly different from the others ([37][–][39 ...
# [3] = tested on: daptomycin nonsusceptible Enterococcus faecium (NTUH688); assay: Rat infective endocarditis model, DNSE; format: in vivo; conditions: for blood_cfu / log_blood_cfu / log_veg_cfu / veg_cfu / veg_sterile: DNSE MIC 8, delay 48 h; for Bacterial load in blood / Rate of sterile vegetation / Bacterial load of vegetation: Wistar rat IE, DNSE MIC 8 mg/L, 48 h from inoculation to treatment; for Bacterial load in blood / Bacterial load of vegetation: mean (SD), SD; for Bacterial load in blood / Rate of sterile vegetation: n = 3; for Bacterial load of vegetation: sacrifice 24 h after last dose, n = 3, detection limit 2 log10 CFU/g; for veg_sterile: flag 1/0;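 on all read-outs here: Catheter-induced aortic valve endocarditis in male Wistar rats, treated 3 days, bacteria counted by plating vegetation and blood homogenates on brain heart infusion agar, control rats given phosphate-buffered saline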
# Protocol: Approval for animal use was obtained from the National Taiwan University Institutional Animal Care and Use Committee before the commencement of the experiments. Endocarditis was induced in male Wistar rats weighing ~330 g by using previously developed methodologies with slight modifications ([46]). To expose the right carotid artery for the placement of an intravascular catheter, the animals were anesthetized with 1 μL/g of Zoletil 50 (1 mg/mL) plus Rompun (23.32 mg/mL). A sterile polyethylene catheter (Intramedic PE-10; Clay Adams, Parsippany, NJ, USA) was inserted through a small incision and advanced 4 cm into the left ventricle. The catheter was ligated and left in place for the duration of the experiment. 24 h after the catheter was placed across the aortic valve, the bacterial inoculum, which was presuspended in saline, and 1 mL of 10^8 CFU/mL of VRE were administered intravenously via the tail vein. We evaluated the actual inoculum based on the CFU count. The rats received antibiotic treatment at 24 h or 48 h after the bacterial inoculation.
# The animals were treated for 3 days. A group of infected but phosphate-buffered saline-treated rats was used as a control. 24 h after the last treatment, the animals were sacrificed via anesthetic overdose. The aortic valve vegetation and 1 mL of blood were obtained aseptically from the sacrificed animals, weighed, and homogenized in 1 mL of phosphate-buffered saline. Serial dilutions of homogenized tissues were performed, and 100 μL of each dilution, including the undiluted sample, were plated on brain heart infusion agar to enumerate the bacteria. The animals were included in the final analysis only if they survived the entire therapy and if their catheters were found across the aortic valve in the left ventricle. The detection limit of the bacterial load of vegetation was 2 log10 CFU/g.
# [4] = 45 mg/kg sc, rat 1 of 3 (row order)
# [5] = 45 mg/kg sc, rat 2 of 3 (row order)
# [6] = 45 mg/kg sc, rat 3 of 3 (row order)
# [7] = 90 mg/kg sc, rat 1 of 3 (row order)
# [8] = 90 mg/kg sc, rat 2 of 3 (row order)
# [9] = 90 mg/kg sc, rat 3 of 3 (row order)
structure (smiles),measurement,setting,value
"CCCCCCCCCC(=O)N[C@@H](Cc1c[nH]c2ccccc12)C(=O)N[C@H](CC(N)=O)C(=O)N[C@@H](CC(=O)O)C(=O)N[C@@H]1C(=O)NCC(=O)N[C@@H](CCCN)C(=O)N[C@@H](CC(=O)O)C(=O)N[C@H](C)C(=O)N[C@@H](CC(=O)O)C(=O)NCC(=O)N[C@H](CO)C(=O)N[C@@H]([C@H](C)CC(=O)O)C(=O)N[C@@H](CC(=O)c2ccccc2N)C(=O)O[C@@H]1C [daptomycin, Daptomycin]",auc,[1]; 12 mg/kg iv,228
same,cmax,[1]; 12 mg/kg iv,106
same,auc,[1]; 45 mg/kg sc,987
same,cmax,[1]; 45 mg/kg sc,123
same,auc,[1]; 90 mg/kg sc,2054
same,cmax,[1]; 90 mg/kg sc,179
same,AUC0–24,[1]; single dose 12 mg/kg i.v.,228.2 (15.7) mg × h/L
same,AUC0–24,[1]; single dose 45 mg/kg s.c.,986.7 (185.6) mg × h/L
same,AUC0–24,[1]; single dose 90 mg/kg s.c.,"2,053.6 (352.3) mg × h/L"
same,conc,"[1]; single dose 12 mg/kg i.v., time 0 h, rat id 1",71
same,conc,"[1]; single dose 12 mg/kg i.v., time 0 h, rat id 2",76
same,conc,"[1]; single dose 12 mg/kg i.v., time 0 h, rat id 3",171
same,conc,"[1]; single dose 12 mg/kg i.v., time 0.5 h, rat id 1",45
same,conc,"[1]; single dose 12 mg/kg i.v., time 0.5 h, rat id 2",4
same,conc,"[1]; single dose 12 mg/kg i.v., time 0.5 h, rat id 3",19
same,conc,"[1]; single dose 12 mg/kg i.v., time 1 h, rat id 1",70
same,conc,"[1]; single dose 12 mg/kg i.v., time 1 h, rat id 2",77
same,conc,"[1]; single dose 12 mg/kg i.v., time 1 h, rat id 3",81
same,conc,"[1]; single dose 12 mg/kg i.v., time 2 h, rat id 1",47
same,conc,"[1]; single dose 12 mg/kg i.v., time 2 h, rat id 2",41
same,conc,"[1]; single dose 12 mg/kg i.v., time 2 h, rat id 3",50
same,conc,"[1]; single dose 12 mg/kg i.v., time 3 h, rat id 1",31
same,conc,"[1]; single dose 12 mg/kg i.v., time 3 h, rat id 2",25
same,conc,"[1]; single dose 12 mg/kg i.v., time 3 h, rat id 3",27
same,conc,"[1]; single dose 12 mg/kg i.v., time 4 h, rat id 1",21
same,conc,"[1]; single dose 12 mg/kg i.v., time 4 h, rat id 2",21
same,conc,"[1]; single dose 12 mg/kg i.v., time 4 h, rat id 3",21
same,conc,"[1]; single dose 12 mg/kg i.v., time 5 h, rat id 1",10
same,conc,"[1]; single dose 12 mg/kg i.v., time 5 h, rat id 2",22
same,conc,"[1]; single dose 12 mg/kg i.v., time 5 h, rat id 3",12
same,conc,"[1]; single dose 12 mg/kg i.v., time 8 h, rat id 1",7
same,conc,"[1]; single dose 12 mg/kg i.v., time 8 h, rat id 2",3.76
same,conc,"[1]; single dose 12 mg/kg i.v., time 8 h, rat id 3",2.45
same,conc,"[1]; single dose 12 mg/kg i.v., time 12 h, rat id 1",1.45
same,conc,"[1]; single dose 12 mg/kg i.v., time 12 h, rat id 2",0
same,conc,"[1]; single dose 12 mg/kg i.v., time 12 h, rat id 3",1.2
same,conc,"[1]; single dose 12 mg/kg i.v., time 24 h, rat id 1",0
same,conc,"[1]; single dose 12 mg/kg i.v., time 24 h, rat id 2",0
same,conc,"[1]; single dose 12 mg/kg i.v., time 24 h, rat id 3",0
same,conc,"[1]; single dose 45 mg/kg s.c., time 0 h, rat id 1",4
same,conc,"[1]; single dose 45 mg/kg s.c., time 0 h, rat id 2",3.71
same,conc,"[1]; single dose 45 mg/kg s.c., time 0 h, rat id 3",2
same,conc,"[1]; single dose 45 mg/kg s.c., time 0.5 h, rat id 1",16
same,conc,"[1]; single dose 45 mg/kg s.c., time 0.5 h, rat id 2",19
same,conc,"[1]; single dose 45 mg/kg s.c., time 0.5 h, rat id 3",26
same,conc,"[1]; single dose 45 mg/kg s.c., time 1 h, rat id 1",55
same,conc,"[1]; single dose 45 mg/kg s.c., time 1 h, rat id 2",40
same,conc,"[1]; single dose 45 mg/kg s.c., time 1 h, rat id 3",44
same,conc,"[1]; single dose 45 mg/kg s.c., time 2 h, rat id 1",98
same,conc,"[1]; single dose 45 mg/kg s.c., time 2 h, rat id 2",64
same,conc,"[1]; single dose 45 mg/kg s.c., time 2 h, rat id 3",72
same,conc,"[1]; single dose 45 mg/kg s.c., time 3 h, rat id 1",82
same,conc,"[1]; single dose 45 mg/kg s.c., time 3 h, rat id 2",109
same,conc,"[1]; single dose 45 mg/kg s.c., time 3 h, rat id 3",142
same,conc,"[1]; single dose 45 mg/kg s.c., time 4 h, rat id 1",117
same,conc,"[1]; single dose 45 mg/kg s.c., time 4 h, rat id 2",89
same,conc,"[1]; single dose 45 mg/kg s.c., time 4 h, rat id 3",106
same,conc,"[1]; single dose 45 mg/kg s.c., time 5 h, rat id 1",93
same,conc,"[1]; single dose 45 mg/kg s.c., time 5 h, rat id 2",95
same,conc,"[1]; single dose 45 mg/kg s.c., time 5 h, rat id 3",84
same,conc,"[1]; single dose 45 mg/kg s.c., time 8 h, rat id 1",63
same,conc,"[1]; single dose 45 mg/kg s.c., time 8 h, rat id 2",68
same,conc,"[1]; single dose 45 mg/kg s.c., time 8 h, rat id 3",88
same,conc,"[1]; single dose 45 mg/kg s.c., time 12 h, rat id 1",52
same,conc,"[1]; single dose 45 mg/kg s.c., time 12 h, rat id 2",37
same,conc,"[1]; single dose 45 mg/kg s.c., time 12 h, rat id 3",29
same,conc,"[1]; single dose 45 mg/kg s.c., time 24 h, rat id 1",0.82
same,conc,"[1]; single dose 45 mg/kg s.c., time 24 h, rat id 2",0
same,conc,"[1]; single dose 45 mg/kg s.c., time 24 h, rat id 3",0.52
same,conc,"[1]; single dose 90 mg/kg s.c., time 0 h, rat id 1",5
same,conc,"[1]; single dose 90 mg/kg s.c., time 0 h, rat id 2",7
same,conc,"[1]; single dose 90 mg/kg s.c., time 0 h, rat id 3",4
same,conc,"[1]; single dose 90 mg/kg s.c., time 0.5 h, rat id 1",53
same,conc,"[1]; single dose 90 mg/kg s.c., time 0.5 h, rat id 2",42
same,conc,"[1]; single dose 90 mg/kg s.c., time 0.5 h, rat id 3",51
same,conc,"[1]; single dose 90 mg/kg s.c., time 1 h, rat id 1",58
same,conc,"[1]; single dose 90 mg/kg s.c., time 1 h, rat id 2",80
same,conc,"[1]; single dose 90 mg/kg s.c., time 1 h, rat id 3",57
same,conc,"[1]; single dose 90 mg/kg s.c., time 2 h, rat id 1",116
same,conc,"[1]; single dose 90 mg/kg s.c., time 2 h, rat id 2",143
same,conc,"[1]; single dose 90 mg/kg s.c., time 2 h, rat id 3",129
same,conc,"[1]; single dose 90 mg/kg s.c., time 3 h, rat id 1",125
same,conc,"[1]; single dose 90 mg/kg s.c., time 3 h, rat id 2",175
same,conc,"[1]; single dose 90 mg/kg s.c., time 3 h, rat id 3",200
same,conc,"[1]; single dose 90 mg/kg s.c., time 4 h, rat id 1",161
same,conc,"[1]; single dose 90 mg/kg s.c., time 4 h, rat id 2",148
same,conc,"[1]; single dose 90 mg/kg s.c., time 4 h, rat id 3",143
same,conc,"[1]; single dose 90 mg/kg s.c., time 5 h, rat id 1",158
same,conc,"[1]; single dose 90 mg/kg s.c., time 5 h, rat id 2",168
same,conc,"[1]; single dose 90 mg/kg s.c., time 5 h, rat id 3",179
same,conc,"[1]; single dose 90 mg/kg s.c., time 8 h, rat id 1",128
same,conc,"[1]; single dose 90 mg/kg s.c., time 8 h, rat id 2",151
same,conc,"[1]; single dose 90 mg/kg s.c., time 8 h, rat id 3",170
same,conc,"[1]; single dose 90 mg/kg s.c., time 12 h, rat id 1",78
same,conc,"[1]; single dose 90 mg/kg s.c., time 12 h, rat id 2",116
same,conc,"[1]; single dose 90 mg/kg s.c., time 12 h, rat id 3",84
same,conc,"[1]; single dose 90 mg/kg s.c., time 24 h, rat id 1",2
same,conc,"[1]; single dose 90 mg/kg s.c., time 24 h, rat id 2",6.44
same,conc,"[1]; single dose 90 mg/kg s.c., time 24 h, rat id 3",3.35
same,AUC0–24,[2]; 8 mg/kg i.v.,858.2 (24.9) mg × h/L
same,AUC0–24,[2]; 12 mg/kg i.v.,"1,277.4 (19.8) mg × h/L"
same,cmax,[2]; daily dose 8 mg/kg i.v.,123.3 (13.0) mg/L
same,cmax,[2]; daily dose 12 mg/kg i.v.,183.7 (13.6) mg/L
same,blood_cfu,[3]; [4],180
same,log_blood_cfu,[3]; [4],2.26
same,log_veg_cfu,[3]; [4],7
same,veg_cfu,[3]; [4],5410000
same,blood_cfu,[3]; [5],0
same,log_blood_cfu,[3]; [5],0
same,log_veg_cfu,[3]; [5],7
same,veg_cfu,[3]; [5],7620000
same,blood_cfu,[3]; [6],0
same,log_blood_cfu,[3]; [6],0
same,log_veg_cfu,[3]; [6],7
same,veg_cfu,[3]; [6],13600000
same,blood_cfu,[3]; [7],0
same,log_blood_cfu,[3]; [7],0
same,log_veg_cfu,[3]; [7],5
same,veg_cfu,[3]; [7],80400
same,blood_cfu,[3]; [8],0
same,log_blood_cfu,[3]; [8],0
same,log_veg_cfu,[3]; [8],5
same,veg_cfu,[3]; [8],110000
same,blood_cfu,[3]; [9],0
same,log_blood_cfu,[3]; [9],0
same,log_veg_cfu,[3]; [9],5.59
same,veg_cfu,[3]; [9],390000
same,Bacterial load in blood,[3]; 45 mg/kg/day s.c. 3 days,0.75 (1.30) log10 CFU/mL
same,Rate of sterile vegetation,[3]; 45 mg/kg/day s.c. 3 days,0
same,Bacterial load of vegetation,"[3]; 45 mg/kg/day s.c. 3 days, 45 mg/kg/day",6.92 (0.20)^f log10 CFU/g
same,Bacterial load in blood,[3]; 90 mg/kg/day s.c. 3 days,0 (0) log10 CFU/mL
same,Rate of sterile vegetation,[3]; 90 mg/kg/day s.c. 3 days,0
same,Bacterial load of vegetation,"[3]; 90 mg/kg/day s.c. 3 days, 90 mg/kg/day","5.18 (0.36)^g^,^h log10 CFU/g"
same,veg_sterile,[3]; [4],0
same,veg_sterile,[3]; [5],0
same,veg_sterile,[3]; [6],0
same,veg_sterile,[3]; [7],0
same,veg_sterile,[3]; [8],0
same,veg_sterile,[3]; [9],0
